# Source: publication PMC12487869, “Toward Imaging of the GABA Transporter Type 1 In Vivo: Quantitative Evaluation of 4 Novel PET Radiotracers in Nonhuman Primates” (Journal of Nuclear Medicine, 2025)
# Legend:
# [1] = Plasma free fraction (fp), ultrafiltration method; assay type: in vitro ADME, rhesus monkeys (Macaca mulatta); conditions: measured in triplicate per scan, mean ± SD
# Experimental: The plasma free fraction (fp) for each scan was measured in triplicate using the ultrafiltration method and calculated as the ratio of radioactivity in the filtrate to that in the plasma ([24]).
# [2] = biological target: T1, GAT-1 (Macaca mulatta, UniProt H9ELS5); experiment: PET brain imaging with kinetic modeling (1TCM), baseline and tiagabine blocking scans; assay type: in vivo, rhesus monkeys (Macaca mulatta); conditions: for Median VT across ROIs: 1TCM
# T1 construct: from tissue; host or cells: brain of living rhesus monkeys (in vivo PET)
# Experimental: Twenty scans were acquired from 4 rhesus monkeys (Macaca mulatta). Each monkey underwent baseline and blocking scans with ^18F-GATT-31, ^18F-GATT-34, ^18F-GATT-39, or ^18F-GATT-44 (Fig. 1) on a Focus-220 small-animal PET scanner (Siemens Healthineers).
# (§1) Before each scan, each monkey was sedated with alfaxalone (2 mg/kg), midazolam (0.3 mg/kg), and dexmedetomidine (0.01 mg/kg), and anesthesia was maintained with 1.5%–2.5% isoflurane. Heart rate, blood pressure, respiration rate, and oxygen saturation were monitored continuously. An intravenous line was placed in the saphenous or cephalic vein for delivery of the radiotracer, as well as tiagabine during blocking studies (0.5 mg/kg administered 19 ± 4 min before radiotracer injections). A catheter was placed in the radial or tibial artery for blood sampling.
# Before injection, a transmission scan was acquired. Starting with injection of the radiotracer, PET emission data were acquired in list-mode format and binned into 45 frames (6 × 30 s, 3 × 1 min, 2 × 2 min, and 34 × 5 min).
# For region-of-interest (ROI) definition, each PET image was registered to an in-house rhesus monkey anatomical MRI template using the concatenation of a rigid-body transformation between the summed PET image (0–10 min) and corresponding monkey’s MRI (using the FMRIB Linear Image Registration Tool) and a nonlinear transformation matrix estimated between the monkey’s MRI and the MRI template (BioImage Suite software version 3.01). Regional time–activity curves were extracted for the following 11 ROIs: brain stem, caudate, cerebellum, cingulate cortex, frontal cortex, hippocampus, insula, occipital cortex, putamen, temporal cortex, and thalamus.
# For each baseline and blocking scan, kinetic analysis was performed using a 1-tissue compartment model (1TCM), a reversible 2-tissue compartment model (2TCM; k4 > 0), and an irreversible 2-tissue compartment model (2TiCM; k4 = 0), including a blood volume fraction (Vb) term and a time-delay term. Vb was estimated for each time–activity curve using the whole-blood curve fitted with a sum of exponentials. The time delay (Δt) between the input function and the brain was estimated by fitting the first 10 min of the whole-brain time–activity curve to a 1TCM with 3 parameters: K1, Vb, and Δt (k2 was set to 0 because of the negligible radiotracer washout during the first 10 min). This estimated time delay value was then used in the time–activity curve fits. The primary parameters of interest were the influx constant (K1, expressed in microliters per minute per cubic centimeter, since values were low), the volume of distribution (VT, expressed in milliliters per cubic centimeter), and the net influx constant (Ki, expressed in milliliters per minute per cubic centimeter) for 2TiCM.
# [3] = biological target: T1, GAT-1; experiment: Occupancy plots from baseline and tiagabine blocking PET scans (occupancy, VND, BPND); assay type: in vivo, rhesus monkeys (Macaca mulatta); parameters: key to BPND: BPND = VT/VND − 1 (dimensionless); conditions: for VND: occupancy plot; for Occupancy: tiagabine 0.5 mg/kg occupancy measured with this radiotracer
# Experimental: as §1
# (§2) Occupancy plots ([26]) were used to estimate tiagabine occupancy and the nondisplaceable volume of distribution (VND). This VND value was used to compute the nondisplaceable binding potential (BPND = VT/VND − 1). To compare the performance between 2 radiotracers, a Guo plot ([27]) was created, using baseline VT values, to assess the relative affinity and BPND values of each radiotracer.
# [4] = biological target: T1, GAT-1; experiment: Guo plot comparing baseline VT of two radiotracers (relative affinity and BPND); assay type: in vivo, rhesus monkeys (Macaca mulatta)
# From the text: as §2
# [5] = biological target: T1, GAT-1; experiment: Time stability of VT with shortened scan duration; assay type: in vivo, rhesus monkeys (Macaca mulatta); conditions: for Mean percent difference in VT on shortening scan from 180 to 120 min: baseline, 3 monkeys; for Mean percent difference in VT with respect to the 180-min value: blocking condition
# Experimental: Finally, to assess the possibility of reducing scan duration, time stability was assessed for the most promising radiotracer by sequentially shortening the time–activity curves from 180 to 60 min and reestimating the kinetic parameters. Scan-time reduction was deemed possible if the VT values from these shortened time–activity curves were within 10% of those estimated with the full time–activity curves.
# T1 sequence (H9ELS5 1-599): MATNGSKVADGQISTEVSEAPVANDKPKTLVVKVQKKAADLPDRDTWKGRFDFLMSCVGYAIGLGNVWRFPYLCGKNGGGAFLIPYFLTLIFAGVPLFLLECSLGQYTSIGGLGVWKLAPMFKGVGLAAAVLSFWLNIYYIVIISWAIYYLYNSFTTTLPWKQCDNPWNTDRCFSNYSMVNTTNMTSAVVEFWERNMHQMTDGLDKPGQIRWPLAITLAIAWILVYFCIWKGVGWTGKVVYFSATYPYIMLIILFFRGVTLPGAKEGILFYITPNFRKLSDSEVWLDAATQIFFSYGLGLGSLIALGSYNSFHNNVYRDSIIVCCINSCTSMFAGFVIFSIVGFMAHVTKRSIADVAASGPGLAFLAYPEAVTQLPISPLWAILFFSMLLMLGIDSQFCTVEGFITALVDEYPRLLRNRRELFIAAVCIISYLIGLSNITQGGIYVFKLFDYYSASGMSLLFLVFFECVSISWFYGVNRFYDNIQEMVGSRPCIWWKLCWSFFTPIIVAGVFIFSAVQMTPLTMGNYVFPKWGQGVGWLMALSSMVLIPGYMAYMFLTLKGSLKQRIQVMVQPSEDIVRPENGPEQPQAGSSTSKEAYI
compound,measurement,setting,value
Cc1ccccc1C(=CCCN1CCCC(C(=O)O)C1)c1ccccc1[18F] (centres unmarked) [^18F-GATT-44],Free fraction,[1],13.5 ± 1.4%
same,Median VT across ROIs,[2]; after blocking with tiagabine 0.5 mg/kg,1.7 mL/cm^3
same,Median VT across ROIs,[2]; baseline,3.5 mL/cm^3
same,VT,"[2]; Average of ROIs, baseline, 3 monkeys, mean ± SD",3.40 ± 0.52 mL/cm^3
same,VT,"[2]; Average of ROIs, blocking (tiagabine 0.5 mg/kg), 3 monkeys, mean ± SD",1.66 ± 0.11 mL/cm^3
same,VT,"[2]; Brain stem, baseline, averaged across 3 monkeys, mean ± SD",2.61 ± 0.42 mL/cm^3
same,VT,"[2]; Brain stem, blocking (tiagabine 0.5 mg/kg), 3 monkeys, mean ± SD",1.45 ± 0.20 mL/cm^3
same,VT,"[2]; Caudate nucleus, baseline, 3 monkeys, mean ± SD",2.25 ± 0.13 mL/cm^3
same,VT,"[2]; Caudate nucleus, blocking (tiagabine 0.5 mg/kg), 3 monkeys, mean ± SD",1.27 ± 0.11 mL/cm^3
same,VT,"[2]; Cerebellum, baseline, 3 monkeys, mean ± SD",3.36 ± 0.39 mL/cm^3
same,VT,"[2]; Cerebellum, blocking (tiagabine 0.5 mg/kg), 3 monkeys, mean ± SD",1.60 ± 0.13 mL/cm^3
same,VT,"[2]; Cingulate cortex, baseline, 3 monkeys, mean ± SD",4.30 ± 0.39 mL/cm^3
same,VT,"[2]; Cingulate cortex, blocking (tiagabine 0.5 mg/kg), 3 monkeys, mean ± SD",2.16 ± 0.18 mL/cm^3
same,VT,"[2]; Frontal cortex, baseline, 3 monkeys, mean ± SD",3.73 ± 0.46 mL/cm^3
same,VT,"[2]; Frontal cortex, blocking (tiagabine 0.5 mg/kg), 3 monkeys, mean ± SD",1.79 ± 0.04 mL/cm^3
same,VT,"[2]; Hippocampus, baseline, 3 monkeys, mean ± SD",2.98 ± 1.10 mL/cm^3
same,VT,"[2]; Hippocampus, blocking (tiagabine 0.5 mg/kg), 3 monkeys, mean ± SD",1.44 ± 0.07 mL/cm^3
same,VT,"[2]; Insula, baseline, 3 monkeys, mean ± SD",4.46 ± 0.67 mL/cm^3
same,VT,"[2]; Insula, blocking (tiagabine 0.5 mg/kg), 3 monkeys, mean ± SD",1.97 ± 0.07 mL/cm^3
same,VT,"[2]; Occipital cortex, baseline, 3 monkeys, mean ± SD",4.55 ± 0.74 mL/cm^3
same,VT,"[2]; Occipital cortex, blocking (tiagabine 0.5 mg/kg), 3 monkeys, mean ± SD",2.04 ± 0.11 mL/cm^3
same,VT,"[2]; Putamen, baseline, 3 monkeys, mean ± SD",2.71 ± 0.05 mL/cm^3
same,VT,"[2]; Putamen, blocking (tiagabine 0.5 mg/kg), 3 monkeys, mean ± SD",1.44 ± 0.12 mL/cm^3
same,VT,"[2]; Temporal cortex, baseline, 3 monkeys, mean ± SD",4.48 ± 1.24 mL/cm^3
same,VT,"[2]; Temporal cortex, blocking (tiagabine 0.5 mg/kg), 3 monkeys, mean ± SD",1.93 ± 0.05 mL/cm^3
same,VT,"[2]; Thalamus, baseline, 3 monkeys, mean ± SD",1.96 ± 0.10 mL/cm^3
same,VT,"[2]; Thalamus, blocking (tiagabine 0.5 mg/kg), 3 monkeys, mean ± SD",1.19 ± 0.17 mL/cm^3
same,Radiotracer clearance time (half-life = ln(2)/k2),"[2]; brain, baseline",175 ± 42 min
same,Blood volume fraction (Vb),"[2]; mean ± SD, n = 66 (11 ROIs × 6 scans)",0.036 ± 0.013 mL/cm^3
same,Overall spatial correlation (r) of regional distribution with ^11C-flumazenil,"[2]; nonhuman primates, P < 0.01, previously acquired ^11C-flumazenil data",0.87
same,BPND,"[3]; Average of ROIs, baseline",2.88 ± 0.59
same,BPND,"[3]; Average of ROIs, blocking",0.90 ± 0.13
same,BPND,"[3]; Brain stem, baseline, BPND = VT/VND – 1 with averaged VND",1.98 ± 0.48
same,BPND,"[3]; Brain stem, blocking, BPND = VT/VND – 1 with averaged VND",0.66 ± 0.23
same,BPND,"[3]; Caudate nucleus, baseline",1.57 ± 0.15
same,BPND,"[3]; Caudate nucleus, blocking",0.45 ± 0.12
same,BPND,"[3]; Cerebellum, baseline",2.84 ± 0.44
same,BPND,"[3]; Cerebellum, blocking",0.83 ± 0.15
same,BPND,"[3]; Cingulate cortex, baseline",3.91 ± 0.44
same,BPND,"[3]; Cingulate cortex, blocking",1.46 ± 0.20
same,BPND,"[3]; Frontal cortex, baseline",3.26 ± 0.52
same,BPND,"[3]; Frontal cortex, blocking",1.04 ± 0.04
same,BPND,"[3]; Hippocampus, baseline",2.40 ± 1.25
same,BPND,"[3]; Hippocampus, blocking",0.64 ± 0.08
same,BPND,"[3]; Insula, baseline",4.08 ± 0.76
same,BPND,"[3]; Insula, blocking",1.25 ± 0.08
same,BPND,"[3]; Occipital cortex, baseline",4.19 ± 0.84
same,BPND,"[3]; Occipital cortex, blocking",1.32 ± 0.13
same,BPND,"[3]; Putamen, baseline",2.09 ± 0.06
same,BPND,"[3]; Putamen, blocking",0.64 ± 0.14
same,BPND,"[3]; Temporal cortex, baseline",4.10 ± 1.41
same,BPND,"[3]; Temporal cortex, blocking",1.20 ± 0.05
same,BPND,"[3]; Thalamus, baseline",1.24 ± 0.11
same,BPND,"[3]; Thalamus, blocking",0.36 ± 0.20
same,VND,[3]; monkey 1,1.03 mL/cm^3
same,VND,[3]; monkey 2,0.96 mL/cm^3
same,VND,[3]; monkey 3,0.64 mL/cm^3
same,"VND, mean ± SD across monkeys","[3]; occupancy plots, 3 monkeys, average rSE of 16%",0.88 ± 0.21 mL/cm^3
same,Occupancy,[3]; monkey 1,65%
same,Occupancy,[3]; monkey 2,70%
same,Occupancy,[3]; monkey 3,71%
same,Occupancy (overall),[3]; tiagabine blocking,69%
same,KD ratio (KD^GATT-31/KD^GATT-44),[4]; Guo plot slope using measured fp values,1.06
same,BPND predicted higher than for ^18F-GATT-31,"[4]; Guo plot y-intercept, baseline VT",approximately 17%
same,Mean percent difference in VT on shortening scan from 180 to 120 min,[5]; hippocampus,1%
same,Mean percent difference in VT on shortening scan from 180 to 120 min,[5]; thalamus,−12%
same,Mean percent difference in VT with respect to the 180-min value,[5]; frontal cortex,−5%
same,Mean percent difference in VT with respect to the 180-min value,[5]; thalamus,3%
